From US20120171286A1, “METHODS AND COMPOSITIONS FOR THE TREATMENT AND DIAGNOSIS OF STATIN-INDUCED MYOPATHY” (Beth Isreal Deaconess Medical Center, priority 2009, published 2012)

Assays:
[1] = system: atrogin-1 mRNA; assay: Atrogin-1 mRNA level in myotubes by real-time PCR; assay type: cell-based, mouse; details: for atrogin-1 expression in myotube culture: 2.5 μM compound alone, mRNA and protein (FIGS. 7C-7D); for atrogin-1 mRNA expression: 30 μM compound
[2] = system: zebrafish atrogin-1; assay: Zebrafish atrogin-1 protein by Western blotting; assay type: in vivo, zebrafish (Danio rerio); details: 12 hours; for atrogin-1 expression in zebrafish embryos: 2.5 μM compound alone
Method: Western blotting: Zebrafish embryos were homogenized in SDS sample buffer (30 embryos/30 μL of sample buffer) with microfuge pestle until the lysate became uniform in consistency and there was no longer stringy. The lysate was boiled for 5 minutes and centrifuged supernatant was processed for Western blotting (Hanai et al., J. Cell Biol. 158:529-539, 2002). […] (GAPDH) antibody was from Santa Cruz Biotechnology.

[3] = system: zebrafish embryos; assay: Zebrafish embryo myofiber damage, myosin heavy chain staining; details: for fiber diameter in zebrafish embryos: 2.5 μM compound alone
Method: Zebrafish lines and maintenance: Adult zebrafish (Danio rerio) were maintained as described under standard laboratory conditions at 28.5° C. in a 14 hour light/10 hour dark cycle (Westerfield, in Institute of Neuroscience University of Oregon, Eugene, Oreg.). Developmental stages were determined by embryo morphology and hours post fertilization (hpf) (Kimmel et al., Dev. Dyn. 203:253-310, 1995). To examine the effects of lovastatin, the embryos at 20-24 hpf were immersed in the embryonic water (500 μM NaCl, 170 μM KCl, 330 μM CaCl2, and 330 μM MgSO4) at a concentration of 0.005-10 μM lovastatin (mevinolin) (Sigma) including 0.003% 1-phenyl-2-thiourea (Sigma) to inhibit pigmentation in a 24-well plate. After 32 hpf, the embryos were fixed by 4% paraformaldehyde in PBS.
Whole zebrafish antibody staining: Zebrafish embryos were fixed by 4% paraformaldehyde in PBS overnight. After fixation, the embryos were washed by PBS and stored for at least 1 hour at −20° C. in methanol, and permeabilized for 30 minutes at −20° C. in acetone. Embryos were incubated with blocking buffer (1% BSA, 0.1% Tween-20 in PBS), and incubated with diluted primary antibody, anti-slow twitch myosin F59 (1:100; Developmental Studies Hybridoma Bank (DSHB), Department of Biological Sciences, University of Iowa) (Crow et al., Dev. Biol. 118:333-342, 1986; Devoto et al., Development 122:3371-3380, 1996) in blocking solution for overnight at 4° C. Staining was detected by using Alexa Fluor(R) 594 goat anti-mouse IgG (H+L) (1:200; Invitrogen) in blocking solution for 4 hours at room temperature (Birely et al., Dev. Biol. 280:162-176, 2005).

[4] = system: myotubes derived from atrogin-1 wildtype mice (+/+); assay: Myotube diameter and morphology, myotubes from wildtype mice; assay type: cell-based, mouse; details: for fiber diameter in myotube culture: 2.5 μM compound alone
Method: (§1) Myotube fiber size: Size was quantified by measuring a total of 200 tube diameters as described in Sandri et al. (Cell 117:399-412, 2004). Briefly, muscle fiber size from four random fields at 100-fold magnification was measured using IMAGE software (Scion). All data were expressed as the mean +/− S.E.M.

[5] = system: atrogin-1 protein; assay: Atrogin-1 protein in myotubes by Western blotting; assay type: cell-based, mouse; details: for atrogin-1 protein expression: 30 μM compound
Method: Western blotting: Cultured cells after treatment were collected at specific times and solubilized in RIPA lysis buffer (50 mM Tris-HCl, pH 7.4, 150 mM NaCl 1% NP-40, 0.5% sodium deoxycholate, 0.1% SDS (Boston Bioproducts)), protease (Roche) and phosphatase (Sigma) inhibitor cocktail). Proteins were separated by SDS-PAGE, transferred to PVDF membranes and visualized by Western blotting using alkaline phosphatase-based CDP-star chemiluminescent detection according to the manufacturer's protocol (Applied Biosystems). Polyclonal anti-atrogin-1 antibody was used as described in Bdolah et al. (Am. J. Physiol. Reg. Integr. Comp. Physiol. 292:R971-R976, 2007). Anti-actin and dynein antibodies were from Santa Cruz Biotechnology.

[6] = system: myotubes derived from atrogin-1 knockout mice (−/−); assay: Myotube diameter and morphology, myotubes from atrogin-1 knockout mice; assay type: cell-based, mouse
Method: as §1

[7] = 2.5 μM compound with lovastatin, 24 hours, myotube culture
[8] = mevalonate 100 μM + lovastatin 1 μM, 24 hours
[9] = perillyl alcohol 1.0 mM for 24 hours, wildtype myotubes
[10] = lovastatin 24 hours, wildtype cultures

CC(C)=CCC/C(C)=C/CC/C(C)=C/CC/C(C)=C/CO [geranylgeranol]
atrogin-1 expression in myotube culture ([1]; 24 hours): neither 2.5 μM farnesol nor 2.5 μM geranylgeranol alone had any effect
degree of atrogin-1 mRNA induction [1, 7]: reduced the degree
atrogin-1 expression in zebrafish embryos [2]: neither 2.5 μM farnesol nor 2.5 μM geranylgeranol alone had any effect
degree of atrogin-1 induction in zebrafish embryos ([2]; 2.5 μM compound with lovastatin): reduced the degree
fiber diameter in zebrafish embryos ([3]; 12 hours): neither 2.5 μM farnesol nor 2.5 μM geranylgeranol alone had any effect
fiber damage in zebrafish embryos ([3]; 2.5 μM compound with lovastatin, 12 hours): reduced the degree
fiber diameter in myotube culture ([4]; 24 hours): neither 2.5 μM farnesol nor 2.5 μM geranylgeranol alone had any effect
fiber damage in myotube culture ([4]; 2.5 μM compound with lovastatin, 24 hours): reduced the degree
degree of atrogin-1 protein induction [5, 7]: reduced the degree

CC(=O)N[C@@H](CSC/C=C(\C)CC/C=C(\C)CC/C=C(\C)CCC=C(C)C)C(=O)O [AGGC, N-acetyl-S-geranylgeranyl-L-cysteine]
effect on myotubes ([6]; 30 μM AGGC, 24 hours, atrogin-1 knockout myotubes): resistant to this reagent
atrogin-1 mRNA expression ([1]; 24 hours): induction
atrogin-1 protein expression ([5]; 24 hours): induction

CC(O)(CCO)CC(=O)O (stereo not shown) [mevalonate]
atrogin-1 mRNA induction caused by lovastatin [1, 8]: completely prevented
zebrafish atrogin-1 induction ([2]; 100 μM mevalonate + 0.05 to 1.0 μM lovastatin): completely prevented
development of zebrafish myofiber damage ([3]; 100 μM mevalonate + 0.05 to 1.0 μM lovastatin, 12 hours): completely prevented
reduction of myotube diameter caused by lovastatin [4, 8]: completely prevented
effect on the muscle cultures when administered alone ([4]; mevalonate 100 μM alone, 24 hours): no effect
atrogin-1 protein induction caused by lovastatin [5, 8]: completely prevented

C=C(C)[C@@H]1CC=C(CO)CC1 [Perillyl alcohol, perillyl alcohol]
atrogin-1 mRNA levels [1, 9]: induction
muscle fibers in zebrafish embryos ([3]; 0.1 to 1.0 mM perillyl alcohol for 12 hours): dramatic thinning of muscle fibers and morphologic damage
damage of myotubes [4, 9]: marked damage
atrogin-1 protein levels [5, 9]: induction

CC(=O)N[C@@H](CSC/C=C(\C)CC/C=C(\C)CCC=C(C)C)C(=O)O [AFC, N-acetyl-S-farnesyl-L-cysteine]
atrogin-1 mRNA expression ([1]; 24 hours): no effect
myotube diameter / myotube integrity ([4]; 30 μM compound, 24 hours, wildtype myotubes): no effect
atrogin-1 protein expression ([5]; 24 hours): no effect

CC[C@H](C)C(=O)O[C@H]1C[C@@H](C)C=C2C=C[C@H](C)[C@H](CC[C@@H]3C[C@@H](O)CC(=O)O3)[C@H]21 [lovastatin]
myotube diameter ([6]; 0.5 to 1.0 μM lovastatin for 24 hours, atrogin-1 knockout cultures): resistant to lovastatin-induced reduction in myotube diameter
atrogin-1 mRNA levels [1, 10]: dose-dependent increase
muscle phenotypes (longitudinal muscle fiber staining, myosin heavy chain antibody) ([3]; lovastatin alone, zebrafish in vivo model): clear dose-dependent muscle phenotypes
lovastatin concentration giving class 2 changes (fiber thinning, attenuation of MHC staining) ([3]; zebrafish embryos, higher concentrations): 0.05 to 0.5 µM
lovastatin concentration giving class 1 changes (bowing, gap formation, fiber disruption) ([3]; zebrafish embryos, low concentration): 0.025 to 0.05 µM
lovastatin concentration giving class 3 changes (irregular somite boundries) ([3]; zebrafish embryos, maximal concentration): 1.0 to 5.0 µM
myotube diameter ([4]; 0.5 to 1.0 μM lovastatin for 24 hours, wildtype myotubes): dose-dependent reduction in myotube diameter
atrogin-1 protein levels [5, 10]: dose-dependent increase

CC(C)=CCCC(C)=CCCC(C)=CCO [farnesol]
atrogin-1 expression in myotube culture ([1]; 24 hours): neither 2.5 μM farnesol nor 2.5 μM geranylgeranol alone had any effect
atrogin-1 expression in zebrafish embryos [2]: neither 2.5 μM farnesol nor 2.5 μM geranylgeranol alone had any effect
fiber diameter in zebrafish embryos ([3]; 12 hours): neither 2.5 μM farnesol nor 2.5 μM geranylgeranol alone had any effect
fiber diameter in myotube culture ([4]; 24 hours): neither 2.5 μM farnesol nor 2.5 μM geranylgeranol alone had any effect
